{
  "source": "patent US8110675B2",
  "about": "“TP expression-inhibiting compound and siRNA sequence thereof” (Chang Gung University, priority 2009, dated 2012)",
  "system": "NPC-TW02 and NPC-TW02/TP cells",
  "assay": "cytotoxicity assay with 5′-DFUR, apoptosis by annexin V flow cytometry",
  "format": "cell-based",
  "details": "TP over-expression, 72 hours",
  "method": "Refer to FIG. 1A and FIG. 1B. A cell line of nasopharyngeal cancer NPC-TW02/TP is established to stably express exogenous TP. First, the TP-expression carrier pcDNA3.1-PT is transfected to the cell line. Next, the cell line is screened and then cultivated in a culture solution having 500 μg/ml G418. Next is performed a cytotoxicity assay, wherein NPC-TW02 and NPC-TW02/TP are respectively processed with 5′-DFUR (Sigma-Aldrich, St. Louis, Mo., USA). Next, the cell lines are further cultivated for 72 hours. Next, the cell membranes are everted to expose phosphatidylserine. Then, phosphatidylserine is analyzed with the Vybrant® Apoptosis Assay Kit #2 (a product of Invitrogen).\nFirstly, 2×10^5 cells are taken out and washed with PBS. Next, a buffer solution (10 mM HEPES, 140 mM NaCl, 2.5 mM CaCl2, pH 7.4) is used to adjust the solution to have a cell concentration of 2×10^6/mL. Next, 5 μl Alexa Fluor® 488 annexin V is added into 100 μl cell suspension, and then the cell suspension reacts at an ambient temperature for 15 minutes. Next, the cell specimens (10000 events) are analyzed with a flow cytometer (a product of Becton Dickinson), as shown in FIG. 3. […] Then, phosphatidylserine is analyzed with the Vybrant® Apoptosis Assay Kit #2 (a product of Invitrogen).",
  "data": [
    {"smiles": "C[C@H]1O[C@@H](n2cc(F)c(=O)[nH]c2=O)[C@H](O)[C@@H]1O", "note": "[5′-DFUR, 5-fluoro-5′-deoxyuridine]", "values": [
      {"measurement": "sensitivity of TP over-expressing nasopharyngeal cancer cells / induction of apoptosis", "result": "can induce the apoptosis of cancer cells"}
    ]}
  ]
}
